Values joined by “and” are separate entries in the source; they are usually repeats but may differ in a detail not shown here. Equal entries are not always repeated. Where two headings read alike, the source gives them in different places.
How the values were obtained:
Human HDAC2 = biological target: T1, Human HDAC2 (Homo sapiens, UniProt Q92769); assay: Biochemical HDAC assay, HDAC2; conditions: incubation time 120 min
T1 construct: full-length with a C-terminal His-tag; His-tag (C); made in house
T1 sequence (Q92769 whole entry): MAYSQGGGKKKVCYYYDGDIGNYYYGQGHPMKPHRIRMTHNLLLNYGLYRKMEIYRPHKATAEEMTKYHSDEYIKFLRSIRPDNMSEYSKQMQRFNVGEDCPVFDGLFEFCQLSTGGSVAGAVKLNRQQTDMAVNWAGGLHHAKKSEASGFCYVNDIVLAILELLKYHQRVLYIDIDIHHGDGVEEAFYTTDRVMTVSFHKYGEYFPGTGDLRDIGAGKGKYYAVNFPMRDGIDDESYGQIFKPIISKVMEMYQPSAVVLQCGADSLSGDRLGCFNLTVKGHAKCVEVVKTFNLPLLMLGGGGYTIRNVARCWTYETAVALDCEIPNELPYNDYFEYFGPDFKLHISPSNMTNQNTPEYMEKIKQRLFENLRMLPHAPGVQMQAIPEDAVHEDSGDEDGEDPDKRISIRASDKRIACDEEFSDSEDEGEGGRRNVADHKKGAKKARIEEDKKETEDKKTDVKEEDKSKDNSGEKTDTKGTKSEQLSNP
Procedure: Human HDAC2 (GenBank Accession No. NM_001527), full-length with a C-terminal His-tag, MW=56 kDa, was expressed in a baculovirus expression system.
(§1) • I. Compound handling: Testing compounds were dissolved in 100% DMSO to a specific concentration. The serial dilution was conducted by epMotion 5070 in DMSO. • II. HDAC reaction buffer: 50 mM Tris-HCl, pH8.0, 137 mM NaCl, 2.7 mM KCl, and 1 mM MgCl2, Added fresh: 1 mg/ml BSA, 1% DMSO. • III. Substrate: Fluorogenic HDAC General Substrate for HDAC1, 2, 3, 6, 10, 11 ans Sirt1, 2 and 3: Arg-His-Lys-Lys(Ac); HDAC8 only substrate: Arg-His-Lys(Ac)-Lys(Ac); Class2A Substrate (HDAC4, 5, 7 and 9): Acetyl-Lys(trifluoroacetyl)-AMC; Sirt5 substrate: Ac-Lys(succinyl)-AMC. • IV. General Reaction Procedure: (Standard IC50 determination) • a. Delivered 2× enzyme in wells of reaction plate except No Enzyme (No En) control wells. Add buffer in No En wells. • b. Delivered compounds in 100% DMSO into the enzyme mixture by Acoustic technology (Echo550; nanoliter range). Spin down and pre-incubation. • c. Delivered 2× Substrate Mixture (Fluorogenic HDAC Substrate and co-factor (500 μM of Nicotinamide adenine dinucleotide (NAD^+) in all Sirt assay) in all reaction wells to initiate the reaction. Spin and shake. • d. Incubated for 1-2 hr. at 30° C. with seal. • e. Added Developer with Trichostatin A (or TMP269 or NAD^+) to stop the reaction and to generate fluorescent color. • f. Fluorescence was read (excitatory, 360; emission, 460) using the EnVision Multilabel Plate Reader (Perkin Elmer) • g. Endpoint reading was taken for analysis after the development reaches plateau. • V. Data Analysis: The percentages of enzyme activity (relative to DMSO controls) and IC50 values were calculated using the GraphPad Prism 4 program based on a sigmoidal dose-response equation.
(§2) Compounds with indicated doses was tested in the biochemical assays of HDAC1, HDAC2, HDAC3, HDAC4, HDAC5, HDAC6, HDAC7, HDAC8, HDAC9, HDAC10, or HDAC11 enzyme. The incubation time in HDAC1/2 assays are 120 min, and that for other HDACs are 10 min. The curve fit and IC50 values were calculated using the GraphPad Prism 4 program based on a sigmoidal dose-response equation.

[1] = biological target: T2, Complex of human HDAC3 and human NCOR2 (Homo sapiens, UniProt O15379); assay: Biochemical HDAC assay, HDAC3; conditions: incubation time 10 min
T2 construct: full-length with a C-terminal His tag; His tag (C); made in house
T2 sequence (O15379 whole entry): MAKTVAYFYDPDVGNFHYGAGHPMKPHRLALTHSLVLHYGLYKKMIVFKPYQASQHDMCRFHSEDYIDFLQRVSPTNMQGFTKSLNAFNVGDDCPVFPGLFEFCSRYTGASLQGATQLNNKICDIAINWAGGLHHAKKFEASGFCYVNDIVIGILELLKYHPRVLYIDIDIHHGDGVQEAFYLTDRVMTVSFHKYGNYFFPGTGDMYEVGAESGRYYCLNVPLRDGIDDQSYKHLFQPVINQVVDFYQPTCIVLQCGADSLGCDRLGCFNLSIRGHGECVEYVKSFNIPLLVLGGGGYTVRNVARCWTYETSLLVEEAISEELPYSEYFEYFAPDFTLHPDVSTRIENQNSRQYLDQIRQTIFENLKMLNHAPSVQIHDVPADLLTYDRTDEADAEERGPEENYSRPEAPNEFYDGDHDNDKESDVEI
T2 sequence (Q9Y618 395-489 partner limits assumed): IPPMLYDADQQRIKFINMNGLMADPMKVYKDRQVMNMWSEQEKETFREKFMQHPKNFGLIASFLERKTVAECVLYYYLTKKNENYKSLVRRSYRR
Procedure: Complex of human HDAC3 (GenBank Accession No. NM_003883), full-length with a C-terminal His tag, MW=49.7 kDa, and human NCOR2 (amino acid 395-489) (GenBank Accession No. NM_006312), N-terminal GST tag, MW=37.6 kDa, was co-expressed in a baculovirus expression system.
as §1, §2

[2] = Brain exposure experiment in mice; format: in vivo; conditions: 1 hour after exposure
Procedure: Brain exposure experiments were performed wherein mice were exposed to compound Example 5 at an IV dosage of 1 mg/kg (Table 4).

Recombinant human HDAC6 = biological target: T3, Recombinant human HDAC6 (Homo sapiens, UniProt Q9UBN7); assay: Biochemical HDAC assay, HDAC6; conditions: incubation time 10 min
T3 construct: full-length, MW=180 kDa; GST tag (N); made in house; host or cells: Sf9 insect cells (baculovirus)
T3 sequence (Q9UBN7 1-1215): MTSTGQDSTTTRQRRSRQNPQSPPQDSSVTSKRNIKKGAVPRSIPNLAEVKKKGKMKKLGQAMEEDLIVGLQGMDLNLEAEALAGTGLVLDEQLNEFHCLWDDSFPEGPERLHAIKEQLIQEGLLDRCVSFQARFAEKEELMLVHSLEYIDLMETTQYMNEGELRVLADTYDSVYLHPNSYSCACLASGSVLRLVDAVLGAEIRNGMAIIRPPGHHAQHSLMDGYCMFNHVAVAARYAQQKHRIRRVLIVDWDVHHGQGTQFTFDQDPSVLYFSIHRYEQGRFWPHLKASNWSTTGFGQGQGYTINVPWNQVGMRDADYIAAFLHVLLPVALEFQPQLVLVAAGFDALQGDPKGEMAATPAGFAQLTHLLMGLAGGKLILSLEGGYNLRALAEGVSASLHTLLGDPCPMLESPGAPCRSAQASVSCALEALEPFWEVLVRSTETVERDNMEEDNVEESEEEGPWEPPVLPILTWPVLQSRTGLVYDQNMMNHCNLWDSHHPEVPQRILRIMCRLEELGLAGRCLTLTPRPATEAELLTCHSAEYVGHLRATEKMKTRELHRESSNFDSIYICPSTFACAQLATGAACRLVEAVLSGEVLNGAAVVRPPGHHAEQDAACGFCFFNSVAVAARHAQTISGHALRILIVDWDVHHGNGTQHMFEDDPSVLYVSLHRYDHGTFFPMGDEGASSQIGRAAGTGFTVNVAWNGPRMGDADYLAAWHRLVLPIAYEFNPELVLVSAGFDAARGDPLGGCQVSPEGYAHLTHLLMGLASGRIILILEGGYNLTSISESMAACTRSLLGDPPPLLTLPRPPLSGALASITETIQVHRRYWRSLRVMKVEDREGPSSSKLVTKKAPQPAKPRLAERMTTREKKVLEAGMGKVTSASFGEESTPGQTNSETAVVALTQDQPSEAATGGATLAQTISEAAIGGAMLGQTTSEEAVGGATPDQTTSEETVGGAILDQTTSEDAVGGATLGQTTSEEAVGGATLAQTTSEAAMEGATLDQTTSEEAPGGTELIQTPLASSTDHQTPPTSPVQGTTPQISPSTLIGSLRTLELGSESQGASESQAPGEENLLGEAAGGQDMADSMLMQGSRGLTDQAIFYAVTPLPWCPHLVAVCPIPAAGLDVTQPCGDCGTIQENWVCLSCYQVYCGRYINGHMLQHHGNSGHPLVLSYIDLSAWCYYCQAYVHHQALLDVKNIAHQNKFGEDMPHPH
Procedure: Recombinant human HDAC6 (GenBank Accession No. BC069243), full-length, MW=180 kDa, was expressed by baculovirus in Sf9 insect cells using an N-terminal GST tag.
as §1, §2

[3] = IV 1 mg/kg, individual mice, 1 mg/kg

IC50 (Human HDAC2): 0.034 µM
IC50 [1]: > 10 µM
brain penetration (in words) ([2]; IV 1 mg/kg): no brain penetration
Brain concentration [2, 3]: 0 ng/mL
concentration at 1 h ([2]; IV 1 mg/kg, individual mice, 1 mg/kg, read-out: Brain concentration): 0.00 µM
concentration at 1 h ([2]; mouse, brain, iv, 1 mg/kg, average, read-out: Brain concentration): 0 ng/mL and 0 nM
concentration at 1 h ([2]; mouse, brain, iv, 1 mg/kg, individual mice, read-out: Brain concentration): 0 ng/mL and 0 nM
concentration at 1 h ([2]; mouse, plasma, iv, 1 mg/kg, average, read-out: Plasma concentration): 267 ng/mL and 730 nM
concentration at 1 h ([2]; mouse, plasma, iv, 1 mg/kg, individual mice, read-out: Plasma concentration): 324 ng/mL and 890 nM
IC50 (Recombinant human HDAC6): > 10 µM
SMILES: Nc1ccc(-c2cccs2)cc1NC(=O)c1ccc2c(c1)CCC(=O)N2 [Example 5, N-(2-amino-5-(thiophen-2-yl)phenyl)-2-oxo-1,2,3,4-tetrahydroquinoline-6-carboxamide]
Plasma concentration [2, 3]: 206 ng/mL and 0.57 μM and 270 ng/mL and 0.74 μM
